Columns and labels:
[1] = Solubility kinetics in pH 4.5 acetate buffer; assay type: physicochemical; conditions: 37 ° C.
Method: The solubility kinetics of the salt forms as well as the native EYP001 free acid form were determined in FaSSIF and FeSSIF media, and in a pH 4.5 acetate buffer as detailed below:
The samples were prepared by adding an excess of each tested bulk (salt or native EYP001) to a given volume of test medium. The suspension was stirred by orbital stirring over 1 hour (in both pH 4.5 acetate buffer and FeSSIF medium) or 24 hours (inFaSSIF medium) at 37° C., protected from light.
In pH 4.5 acetate buffer, the soluble concentration was assessed after 0.5 hour and 1 hour of stirring.
At each time point, the “supernatant” was isolated and diluted in a solvent mixture allowing its injection into the chromatographic system. The concentration in solution in the test medium was determined by HPLC with external standardization.

[2] = Solubility kinetics in FaSSIF medium; assay type: physicochemical; conditions: after 24 h; for Soluble fraction: 37° C.; for pH: pH given with the soluble fraction
Method: The solubility kinetics of the salt forms as well as the native EYP001 free acid form were determined in FaSSIF and FeSSIF media, and in a pH 4.5 acetate buffer as detailed below: The samples were prepared by adding an excess of each tested bulk (salt or native EYP001) to a given volume of test medium. The suspension was stirred by orbital stirring over 1 hour (in both pH 4.5 acetate buffer and FeSSIF medium) or 24 hours ([…] medium) at 37° C., protected from light. In FaSSIF medium, the soluble concentration was assessed after 24 hours of stirring. […] At each time point, the “supernatant” was isolated and diluted in a solvent mixture allowing its injection into the chromatographic system. The concentration in solution in the test medium was determined by HPLC with external standardization.

[3] = Pharmacokinetic study Experiment #1, oral administration in rats; assay type: in vivo, rat; conditions: 50 mg EqEYP001/Kg, male rats, aqueous formulation
Method: In a first study (Experiment #1), EYP001, EYP001 Meglumine salt, and EYP001 L-lysine salt Form I in aqueous formulations (0.5% CMC, 0.25% Tween 80, water) were orally administrated at a dose of 50 mg EqEYP001/Kg in 3 male rats for each compound. Blood samples were taken at 0.25 h, 0.5 h, 1 h, 2 h, 4 h, 6 h, 8 h, 12 h, and 24 h after oral administration.

[4] = Solubility kinetics in FeSSIF medium; assay type: physicochemical; conditions: for Soluble fraction: 37 ° C.
Method: The solubility kinetics of the salt forms as well as the native EYP001 free acid form were determined in FaSSIF and FeSSIF media, and in a pH 4.5 acetate buffer as detailed below: The samples were prepared by adding an excess of each tested bulk (salt or native EYP001) to a given volume of test medium. […] In FaSSIF medium, the soluble concentration was assessed after 24 hours of stirring. […] At each time point, the “supernatant” was isolated and diluted in a solvent mixture allowing its injection into the chromatographic system. The concentration in solution in the test medium was determined by HPLC with external standardization.

[5] = Pharmacokinetic study Experiment #4, oral administration in rats; assay type: in vivo, rat; conditions: 10 mg EqEYP001/Kg
Method: In a fourth study (Experiment #4), EYP001, EYP001 L-lysine salt amorphous Form and EYP001 L-lysine salt Form VI in aqueous formulations (0.5% CMC, 0.25% Tween 80, water) were orally administrated at a dose of 10 mg EqEYP001/Kg in 8 male rats for each compound (4 rats on day 1 and 4 rats on day 2 for each compound). Blood samples were taken at 0.25 h, 0.5 h, 1 h, 2 h, 4 h, 6 h, 8 h, 12 h, and 24 h after oral administration.

[6] = Thermogravimetric analysis (TGA), mass losses upon heating; assay type: physicochemical
Method: Thermogravimetric analysis was performed on a TA Instruments TGA Hi-Res 2950 apparatus equipped with an evolved gas analysis furnace. A sample was placed in an opened aluminium basket and analysed according to the following conditions: […]

[7] = Dynamic Vapor Sorption (DVS) analysis (gas water sorption); assay type: physicochemical; conditions: for water uptake upon sorption (DVS): 25° C./95% RH; for hygroscopicity (DVS): hygroscopic above 2% mass gain at 25° C./60% RH
Method: The dynamic vapor sorption (DVS) analysis (gas water sorption) was performed on a DVS-Intrinsic incubator (SMS Ltd), equipped with DVS-Intrinsic Control Software 1.0. The sample, placed in an aluminium basket holder, was submitted to a full-cycle analysis (sorption followed by desorption cycle) under the following conditions:
The sample was first pre-dried under a stream of dry air until a stabilized sample mass was observed. Then, the relative humidity was increased by 5% increments. At each step, the sample mass was allowed to increase until equilibrium is reached (according to a given dm/dt target), and then a new relative humidity rise occurred. Relative humidity was ramped up to 95%. After equilibration at this point, desorption began in a similar stepwise manner, with sample mass decrease again allowed to stabilize after each incremental humidity decrease.
With both segments of the above-described method, the sample mass recording allowed describing of the whole vapor water sorption/desorption behaviour versus relative humidity.

[8] = after 0.5 h, listed as EYP001 L-Lysine salt (Form VI)
[9] = after 1 h, listed as EYP001 L-Lysine salt (Form VI)
[10] = male rats, aqueous formulation, listed as EYP001 L-lysine salt (Form VI)
[11] = male rats, versus EYP001 free acid, listed as EYP001 L-lysine salt (Form VI)
[12] = listed as EYP001 L-lysine salt (form VI)

Q: With O=C(O)c1cc2c(Cl)c(N3CCN(S(=O)(=O)c4c(Cl)cccc4Cl)CC3)ccc2o1.c1ccc(CCNCc2ccccc2)cc1 [EYP001 Benethamine salt (polymorph II)] as the compound, how does the Soluble fraction ([1]; after 0.5 h) read?
A: The Soluble fraction was 0.0002 mg/mL of EYP001.

Q: And the Soluble fraction ([1]; after 1 h)?
A: The Soluble fraction was 0.0003 mg/mL of EYP001.

Q: Which results are given for O=C(O)c1cc2c(Cl)c(N3CCN(S(=O)(=O)c4c(Cl)cccc4Cl)CC3)ccc2o1.c1ccc(CCNCc2ccccc2)cc1 [EYP001 Benethamine salt (Polymorph II)]?
A: Soluble fraction [2]: 0.01 mg/mL of EYP001; pH [2]: 6.5

Q: With CNCC(O)C(O)C(O)C(O)CO.O=C(O)c1cc2c(Cl)c(N3CCN(S(=O)(=O)c4c(Cl)cccc4Cl)CC3)ccc2o1 [EYP001 Meglumine salt, reference compound] as the compound, how does the “Mean AUC0-24” value [3] read?
A: The value was 33076 ng·h/mL.

Q: And the “Mean Cmax” value [3]?
A: Its value is 5372 ng/mL.

Q: Which results are given for NCCCC[C@H](N)C(=O)O.O=C(O)c1cc2c(Cl)c(N3CCN(S(=O)(=O)c4c(Cl)cccc4Cl)CC3)ccc2o1 [EYP001 L-lysine salt Form VI, L-lysine salt of 4-chloro-5-[4-(2,6-dichlorophenyl)sulfonylpiperazin-1-yl]-1-benzofuran-2-carboxylic acid]?
A: Soluble fraction [4, 8]: 0.50 mg/mL of EYP001; Soluble fraction [4, 9]: 0.75 mg/mL of EYP001; Soluble fraction ([4]; after 2 h, listed as EYP001 L-Lysine salt (Form VI)): 0.90 mg/mL of EYP001; Soluble fraction ([4]; after 24 h, listed as EYP001 L-Lysine salt (Form VI)): 1.18 mg/mL of EYP001; pH ([4]; pH given with the soluble fraction, after 2 h): (pH = 4.9); pH ([4]; pH printed with the soluble fraction, after 0.5 h, listed as EYP001 L-Lysine salt (Form VI)): (pH = 5.0); pH ([4]; pH printed with the soluble fraction, after 1 h, listed as EYP001 L-Lysine salt (Form VI)): (pH = 4.9); pH ([4]; pH printed with the soluble fraction, after 24 h, listed as EYP001 L-Lysine salt (Form VI)): (pH = 4.9); Mean AUClast [5, 10]: 4612.3 ng·h/mL; Mean Cmax [5, 10]: 2399.2 ng/mL; % increase/EYP001 (AUClast) [5, 11]: +36.6%; % increase/EYP001 (Cmax) [5, 11]: +66.1%; C max compared to EYP001 free acid ([5]; rat): higher C max; exposure (AUC0-24) compared to EYP001 free acid ([5]; rat): superior exposure; variability of the C max (CV %) compared to EYP001 free acid ([5]; rat): strongly reduced; variability of the exposure (CV %) compared to EYP001 free acid ([5]; rat): strongly reduced; Soluble fraction [1, 8]: 0.035 mg/mL of EYP001; Soluble fraction [1, 9]: 0.033 mg/mL of EYP001; Start (° C.) ([6]; TGA step 1): 223 °C; Stop (° C.) ([6]; TGA step 1): 275 °C; TEndset (° C.) ([6]; TGA step 1): 262 °C; TOnset (° C.) ([6]; TGA step 1): 251 °C; Δm (%) mass loss upon heating ([6]; TGA step 1): 11.2%; Start (° C.) ([6]; TGA step 2): 275 °C; Stop (° C.) ([6]; TGA step 2): 480 °C; TEndset (° C.) ([6]; TGA step 2): 344 °C; TOnset (° C.) ([6]; TGA step 2): 313 °C; Δm (%) mass loss upon heating ([6]; TGA step 2): 58.4%; onset temperature of thermal decomposition (TGA) ([6]; heater ramp 10 ° C./min, nitrogen, listed as EYP001 L-lysine salt (Form VI)): 251 °C; mass loss before the beginning of thermal decomposition (TGA) ([6]; upon heating, listed as EYP001 L-lysine salt (Form VI)): no mass loss; mass loss during preliminary drying phase ([7]; 25° C./0% RH before sorption, listed as EYP001 L-lysine salt (Form VI)): no significant mass loss; water uptake (DVS) ([7]; 25° C./60% RH, listed as EYP001 L-lysine salt form VI): 0.07%; water uptake upon sorption (DVS) ([7]; listed as EYP001 L-lysine salt (Form VI)): 0.4%; water uptake upon sorption (DVS) [7, 12]: 0.4%; maximum hysteresis sorption/desorption ([7]; 25° C., listed as EYP001 L-lysine salt (Form VI)): 0.15%; hygroscopicity (DVS) [7, 12]: non-hygroscopic; hygroscopicity (DVS) ([7]; listed as EYP001 L-lysine salt form VI): non-hygroscopic

Q: For C1COCCN1.O=C(O)c1cc2c(Cl)c(N3CCN(S(=O)(=O)c4c(Cl)cccc4Cl)CC3)ccc2o1 [EYP001 Morpholine salt, reference compound], which Soluble fraction [2] is on record?
A: The Soluble fraction was 0.22 mg/mL of EYP001.

Q: And the pH [2]?
A: The pH was 6.5.

Q: For O=C(O)c1cc2c(Cl)c(N3CCN(S(=O)(=O)c4c(Cl)cccc4Cl)CC3)ccc2o1.c1ccc(CCNCc2ccccc2)cc1 [EYP001 Benethamine salt (polymorph I)], which Soluble fraction ([1]; after 0.5 h) is on record?
A: The Soluble fraction was 0.001 mg/mL of EYP001.

Q: And the Soluble fraction ([1]; after 1 h)?
A: Its Soluble fraction is 0.001 mg/mL of EYP001.

Q: For NC1CCCCC1.O=C(O)c1cc2c(Cl)c(N3CCN(S(=O)(=O)c4c(Cl)cccc4Cl)CC3)ccc2o1, which Soluble fraction [2] is on record?
A: The Soluble fraction was 0.19 mg/mL of EYP001.

Q: And the pH [2]?
A: Its pH is 6.5.

Q: For O=C(O)c1cc2c(Cl)c(N3CCN(S(=O)(=O)c4c(Cl)cccc4Cl)CC3)ccc2o1.c1ccc(CCNCc2ccccc2)cc1 [EYP001 Benethamine salt (Polymorph I)], which Soluble fraction [2] is on record?
A: Its Soluble fraction is 0.01 mg/mL of EYP001.

Q: And the pH [2]?
A: Its pH is 6.6.

Q: Which Soluble fraction ([4]; after 0.5 h) does the source give for O=C([O-])c1cc2c(Cl)c(N3CCN(S(=O)(=O)c4c(Cl)cccc4Cl)CC3)ccc2o1.[K+] [EYP001 Potassium salt, reference compound] here?
A: Its Soluble fraction is 0.35 mg/mL of EYP001.

Q: What about the Soluble fraction ([4]; after 1 h) of the same compound?
A: Its Soluble fraction is 0.38 mg/mL of EYP001.

Q: What about the pH ([4]; pH given with the soluble fraction, after 0.5 h) of the same compound?
A: The pH was “(pH = 5.0)”.

Q: What about the pH ([4]; pH given with the soluble fraction, after 1 h) of the same compound?
A: Its pH is “(pH = 5.0)”.

Reference: US20250019370A1, “L-LYSINE SALT OF 4-CHLORO-5-[4-(2,6-DICHLOROPHENYL)SULFONYLPIPERAZIN-1-YL]-1-BENZOFURAN-2-CARBOXYLIC ACID AND VARIOUS FORMS THEREOF” (ENYO PHARMA, priority 2023, published 2025)
